Measured values reported in patent US20160158245A1, “PHARMACEUTICAL FORMULATION CONTAINING THIENOTRIAZOLODIAZEPINE COMPOUNDS” (ONCOETHIX GmbH, priority 2013, published 2016).

Experiments:
Type in all cases: cell-based
[1] = test system: RS4-11; assay: Apoptosis assessment (annexin V/PI flow cytometry); details: RS4-11, 96 hours at 10 nM
Procedure: (§1) a total of 1×10^6 cellsderived from patients or cell lines were resuspended in 1 mL culture medium and incubated with the indicated dosages of OTX015 prepared freshly from 1 mM stock solution in DMSO. Control cells were incubated with the corresponding amount of dimethyl sulfoxide (DMSO 0.2-1%) to exclude toxicity of the excipient. Apoptotic cells were detected by cytofluorometric analysis using a FACScan (Becton Dickinson, Mountain View, USA). Cells were stained with propidium iodide (PI; 5 μg/mL; Becton Dickinson) and concomitantly for 15 minutes at RT with annexin-V-FITC (Becton Dickinson) according to the manufacturer's instructions to determine outer membrane phosphatidyl serine exposure. Data were analyzed with the Flowjo (Tree Star Inc., Ashland, USA) flow cytometry software.

[2] = test system: TOM-1; assay: Apoptosis assessment (annexin V/PI flow cytometry); details: TOM-1, 96 hours at 10 nM
Procedure: as §1

[3] = test system: HL60; assay: Apoptosis assessment (annexin V/PI flow cytometry)
Procedure: as §1

[4] = test system: KG1a; assay: Apoptosis assessment (annexin V/PI flow cytometry); details: 96 hours at 10 nM
Procedure: as §1

[5] = test system: c-MYC in BM cells of patient 5; assay: Immunoblot of c-MYC in patient bone marrow cells treated ex vivo; details: BM cells of patient 5, 250 and 500 nM, 72 h
Procedure: FIGS. 45A-45E illustrate modulation of c-MYC at the protein level in a patient sample. Protein extracts were obtained from bone marrow (BM) cells of patient 5 (FIG. 44D; FIGS. 45A-45D) upon ex vivo treatment with 250 and 500 nM of OTX015 respectively. […] Bone marrow cells from patient 5 were treated with OTX015 at 250 nM and 500 nM and compared to controls exposed to according concentrations with DMSO. Proteins were extracted at 72 h and immunoblotted with appropriate c-MYC antibodies after gel electrophoresis. […] Expression level of cMYC relative to ABL were realised by RQ-PCR at three time points 24, 48 and 72 h (FIG. 45B). Results in FIG. 45B are shown with means±SD from duplicates.
The membranes were blocked with LiCor blocking buffer (LiCor, Lincoln, Nebr., USA) and incubated with the respective primary antibody: anti-BRD4 (Epitomics 5716-1, Burlingame, USA), anti-BRD3 (ab56342, AbCam, UK), anti-BRD2 (ab37633, AbCam, UK), anti c-MYC (sc-764 (N262), Santa Cruz, USA) and anti-GAPDH (Invitrogen 398600, Grand Island, USA). Blots were stained with either goat anti-rabbit InfraRedDye 680RD or goat anti-mouse InfraRedDye 800CWsecondary antibody (LiCor). Membranes were imaged using a LiCor Odyssey scanner. […]

[6] = test system: ALL cell lines; assay: MTT assay, statement over all ALL cell lines; details: MTT at 72 h, span over ALL cell lines; read-out: GI50 across all ALL cell lines
Procedure: Different representative cell lines for ALL including Jurkat cells (T-ALL), RS 4-11 (MLL-AF4 B-precursor ALL), TO′M-1, BV173 (both Ph+ALL) and AML including K562 (Ph+CML in blast crisis,), HL-60 (NRAS driven AML2), NOMO1 (MLL-AF9 driven AML), KG1 (BMP-FGRF+AML6) and its more immature subtype KG1a were cultured in RPMI 1640 (Gibco Invitrogen, Basel, Switzerland) supplemented with 10% or 20% heat-inactivated fetal calf serum respectively, 2 mM L-glutamine, 100 IU/mL penicillin, and 100 µg/mL streptomycin.
MTT-assay: cells were seeded first into 24-well plates at the density of […] per well to avoid variations of concentrations in smaller volumes and treated with different doses of OTX015 prepared freshly from 1 mM stock solution in DMSO. Cells were transferred to 96-well plates for MTT-assay. Untreated cells and cells treated with equal amounts of DMSO (0.2-1%) used for dilution of OTX015 were used as controls. The 3-(4,5-dimethylthiazol-2-yl)-2,5-diphenyltetrazolium bromide (MTT) (Molecular Probes, Eugene, USA) was prepared as a stock of 5 mg/ml in PBS. […] Cells were then lysed with 25% SDS lysis buffer and absorbance was read at 570 nm. […] GI50 values were calculated with Prism v5 software (GraphPad Inc., La Jolla, USA).
AML and ALL cell lines were exposed to increasing concentrations of compound (1-1), (0.1 nM-10 μM). […] GI50 values were expressed as means from 3 independent experiments.

[7] = test system: ALL cell lines (Jurkat, RS 4-11, TOM-1) and AML cell lines (HL60, K562, KG1 and KG1a); assay: Apoptosis assessment, statements over the ALL and AML cell lines
Procedure: as §1
Compound (1-1) induced apoptosis in three ALL cell lines (Jurkat, RS 4-11, TOM-1) and four AML cell lines (HL60, K562, KG1 and KG1a) that were treated with different doses of the drug as detected by outer membrane phosphatidylserine exposure and propidium iodide incorporation at different time points (FIGS. 13A-13C and FIGS. 14A-14D). […] In all other cell lines, 50% of cells became apoptotic within 12 to 24 hours after treatment with 100 nM of Compound (1-1).

[8] = test system: BRD4, BRD3 and c-MYC in K562; assay: Immunoblot (protein level) in K562; details: K562, 500 nM, starting after 24 h
Procedure: FIGS. 43A-43L illustrate effects of OTX015 at the protein level for BRD 4, BRD2 and BRD 3 as well as c-MYC. […] AML cell lines HL60, K562 (FIGS. 43A-43C; FIG. 43D-43F) and ALL cell lines Jurkat and RS4-11 (FIG. 43G-43I; FIG. 4JD-43L) were treated with OTX015 at 500 nM and compared to controls exposed to according DMSO. At indicated time-points proteins were extracted and immunoblotted with BRD4, BRD3, BRD2 or c-MYC antibodies after gel electrophoresis. […] One representative experiment out of three is shown.
The membranes were blocked with LiCor blocking buffer (LiCor, Lincoln, Nebr., USA) and incubated with the respective primary antibody: anti-BRD4 (Epitomics 5716-1, Burlingame, USA), anti-BRD3 (ab56342, AbCam, UK), anti-BRD2 (ab37633, AbCam, UK), anti c-MYC (sc-764 (N262), Santa Cruz, USA) and anti-GAPDH (Invitrogen 398600, Grand Island, USA). Blots were stained with either goat anti-rabbit InfraRedDye 680RD or goat anti-mouse InfraRedDye 800CWsecondary antibody (LiCor). Membranes were imaged using a LiCor Odyssey scanner. Boxes were manually placed around each band of interest, which returned near-infrared fluorescent values of raw intensity with intra-lane background subtracted using Odyssey 3.0 analytical software (LiCor).

## Cc1sc2c(c1C)C(c1ccc(Cl)cc1)=N[C@@H](CC(=O)Nc1ccc(O)cc1)c1nnc(C)n1-2 [Compound (1-1), 2-[(6S)-4-(4-chlorophenyl)-2,3,9-trimethyl-6H-thienol[3,2-f]-[1,2,4]triazolo[4,3-a][1,4]diazepin-6-yl]-N-(4-hydroxyphenyl)acetamide dihydrate]
[1]
  apoptosis: 30%
[2]
  apoptosis: 70%
[3]; HL60, 6 hours exposure, read at 96 hours
  delayed apoptosis after drug washout: significant delayed apoptosis
[3]; HL60, 96 hours at 10 nM
  apoptosis: > 90%
[4]
  apoptosis: 45%
[5]
  c-MYC protein level: downregulation of c-MYC
[6]
  GI50: 0.0342 to 0.25 µM
[7]; 100 nM, within 12 to 24 hours, all cell lines other than K562 and KG1a
  percentage of apoptotic cells: 50%
[7]; 72 h, KG1a, NOMO1, RS4-11, BV-173, Jurkat, TOM-1
  induction of apoptosis, dose dependence: dose-dependent manner
[7]; different doses and time points
  induction of apoptosis: induced apoptosis in all cell lines tested but to a lesser extent in K562 and KG1a cells
[8]
  BRD4, BRD3 and c-MYC protein level: downregulation of BRD4, BRD3 and c-MYC
